Experimental findings from patent US12558428B2, “Heterobifunctional compounds and their use in treating disease” (Halda Therapeutics OpCo, Inc., priority 2024, dated 2026) are described below.

Like-named read-outs stand apart in the source and are kept apart here.

Holding throughout (assay type): cell-based
For test [1], the system named is T-Rex 293 cells having increased expression of estrogen receptor alpha protein. The test can be described thus: Cellular growth inhibition assay, T-Rex 293 cells, (+) doxycycline. The conditions noted are these: T-REx-293, 72 h. In short, it runs like this:
(§1)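 Growth of a doxycycline-inducible ERα T-Rex 293 clone, induced or not with 3 ng/mL doxycycline, was followed for 72 h with test compound in hormone-depleted medium. CellTiter-Glo luminescence gave GI50.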

The test system of test [2] is T-Rex 293 cells lacking increased expression of estrogen receptor alpha protein. The test can be described thus: Cellular growth inhibition assay, T-Rex 293 cells, (−) doxycycline. To be noted: T-REx-293, 72 h. In short, it runs like this:
as §1

Test [3] relates to MCF7 cells (ATCC #HTB-22). The test can be described thus: Cellular growth inhibition assay, MCF7 cells purchased from ATCC. To be noted: Homo sapiens, MCF7, 144 h. In a few lines: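 GI50 values come from a four-parameter fit of CellTiter-Glo 2.0 luminescence after six days of compound exposure at 37° C. Seeding density depended on the source: 225 cells/well for ECACC MCF7, 1,500 for ATCC. Medium was RPMI 1640 with 10% FBS and 0.2 U/ml insulin.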

The mark [4] stands for this setting: T-Rex 293 cells with doxycycline-induced ERα expression, 72 hours, CellTiter-Glo 2.0, read-out: (+) Dox TRex ERa (GI50).
Where [5] appears, read: T-Rex 293 cells without doxycycline, 72 hours, CellTiter-Glo 2.0, read-out: (−) Dox TRex ERa (GI50).
The mark [6] stands for this setting: Table 8-A, MCF7 cells purchased from ATCC, six days, CellTiter-Glo, read-out: GI50.
Setting [7] is: Table 7-A, T-Rex 293 cells with doxycycline (increased ERα expression), 72 hours, CellTiter-Glo, read-out: (+) Dox GI50.
[8] abbreviates: Table 7-A, T-Rex 293 cells without doxycycline (lacking increased ERα expression), 72 hours, CellTiter-Glo, read-out: (−) Dox GI50.

As to `Cc1sc2c(c1C)C(c1ccc(OCCCCC3CCN(c4ccc(C(=O)c5c(-c6ccc(Br)cc6)sc6cc(O)ccc56)cc4)CC3)cc1)=N[C@@H](Cc1ncco1)c1nnc(C)n1-2` [I-14, (S)-(2-(4-bromophenyl)-6-hydroxybenzo[b]thiophen-3-yl)(4-(4-(4-(4-(2,3,9-trimethyl-6-(oxazol-2-ylmethyl)-6H-thieno[3,2-f][1,2,4]triazolo[4,3-a][1,4]diazepin-4-yl)phenoxy)butyl)piperidin-1-yl)phenyl)methanone], the GI50 (usually the concentration at which growth is held to half of that of the control) is 50 to 500 nM in test [1] (setting [4]), over 2500 nM in test [2] (setting [5]) and 500 to 2500 nM in test [3] (setting [6]).

Regarding `CC1=C(c2c(F)cc(F)cc2F)[C@@H](c2ccc(OCC(=O)N3CCCC4(CCN(c5ccc(C6=N[C@@H](Cc7ncco7)c7nnc(C)n7-c7sc(C)c(C)c76)cc5)C4)C3)cc2)Oc2ccc(O)cc21` (stereo partly drawn) [V-34], the GI50 in test [1] (setting [7]), in test [2] (setting [8]) and in test [3] (setting [6]) was 50 to 500 nM each time.

For `COC1(CN2CCC(c3ccc([C@@H]4c5ccc(O)cc5CC[C@@H]4c4ccccc4)cc3)CC2)CCN(c2ccc(C3=N[C@@H](C)c4nnc(C)n4-c4sc(C)c(C)c43)cc2)CC1` [III-130], the figures for the GI50 in test [1] (setting [7]), in test [2] (setting [8]) and in test [3] (setting [6]) were 50 to 500 nM, 500 to 2500 nM and 50 to 500 nM, respectively.

As to `Cc1sc2c(c1C)C(c1ccc(N3CCC(O)(CN4CCN(c5ccc([C@@H]6c7ccc(O)cc7CC[C@@H]6c6cccc(F)c6)c(F)c5)CC4)CC3)cc1)=N[C@@H](C)c1nnc(C)n1-2` [III-289], the GI50 in test [1] (setting [7]) was under 50 nM; in test [2] (setting [8]), 500 to 2500 nM; in test [3] (setting [6]), under 50 nM.

For the molecule `Cc1sc2c(c1C)C(c1ccc(N3CCC(CN4CC(COc5ccc([C@@H]6c7ccc(O)cc7CC[C@@H]6c6ccccc6)cc5)C4)CC3)cc1)=N[C@@H](C)c1nnc(C)n1-2` [III-10], the results for the GI50 in test [1] (setting [7]), in test [2] (setting [8]) and in test [3] (setting [6]) were under 50 nM, 50 to 500 nM and 50 to 500 nM, respectively.

Turning to `Cc1sc2c(c1C)C(c1ccc(N3CC(CN4CCN(c5ccc([C@@H]6c7ccc(O)cc7CC[C@@H]6c6ccccc6)cc5)CC4)C3)cc1)=N[C@@H](C)c1nnc(C)n1-2` [III-89], the concentration for 50% growth inhibition (GI50) is under 50 nM in test [1] (setting [7]), 500 to 2500 nM in test [2] (setting [8]) and 50 to 500 nM in test [3] (setting [6]).

For `Cc1sc2c(c1C)C(c1ccc(C34COC(CN5CCN(c6ccc([C@H]7c8ccc(O)cc8CC[C@H]7c7ccccc7)cc6)CC5)(C3)C4)cc1)=N[C@@H](C)c1nnc(C)n1-2` [III-83], the GI50 in test [1] (setting [7]) was 50 to 500 nM; in test [2] (setting [8]), 500 to 2500 nM; in test [3] (setting [6]), 50 to 500 nM.

For `Cc1sc2c(c1C)C(c1ccc(N3C[C@@H]4C(NCCOc5ccc([C@H]6c7ccc(O)cc7CC[C@H]6c6ccccc6)cc5)[C@H]4C3)cc1)=NC(Cc1ncco1)c1nnc(C)n1-2` (stereo partly drawn) [III-347], the concentration for 50% growth inhibition (GI50) in test [1] (Table 7-B, T-Rex 293 cells with doxycycline (increased ERα expression), 72 hours, CellTiter-Glo, read-out: (+) Dox GI50) is under 50 nM; in test [2] (Table 7-B, T-Rex 293 cells without doxycycline (lacking increased ERα expression), 72 hours, CellTiter-Glo, read-out: (−) Dox GI50), under 50 nM; in test [3] (setting [6]), under 50 nM.

On to `CC1=C(c2ccc(O)cc2)[C@H](c2ccc(OCCN3CC[C@@H](OCCOCCOc4ccc(C5=N[C@@H](C)c6nnc(C)n6-c6sc(C)c(C)c65)cc4)C3)cc2)Oc2cc(O)ccc21` [I-60], for which the GI50 in test [1] (setting [7]) is 50 to 500 nM; in test [2] (setting [8]) it was 500 to 2500 nM; in test [3] (setting [6]), 50 to 500 nM.

`COc1ccc(-c2sc3cc(OC)ccc3c2C(=O)c2ccc(OCCN3CCC(CCCCOc4ccc(C5=N[C@@H](Cc6ncco6)c6nnc(C)n6-c6sc(C)c(C)c65)cc4)CC3)cc2)cc1` [V-1]: the GI50 in test [1] (setting [7]), in test [2] (setting [8]) and in test [3] (setting [6]) was 50 to 500 nM each time.

With `Cc1sc2c(c1C)C(c1ccc(N3CC(CCN4CC(COc5ccc([C@@H]6c7ccc(O)cc7CC[C@@H]6c6ccccc6)cc5)C4)C3)cc1)=N[C@@H](C)c1nnc(C)n1-2` [III-84], the results for the concentration for 50% growth inhibition (GI50) in test [1] (setting [7]), in test [2] (setting [8]) and in test [3] (setting [6]) were under 50 nM, 500 to 2500 nM and 50 to 500 nM, respectively.

`Cc1sc2c(c1C)C(c1ccc(NCCCN3CCN(CCOc4ccc([C@@H]5c6ccc(O)cc6CC[C@@H]5c5ccccc5)cc4)CC3)cc1)=NC(Cc1ncco1)c1nnc(C)n1-2` (stereo partly drawn) [III-37]: the GI50 in test [1] (setting [7]) was under 50 nM; in test [2] (setting [8]), 50 to 500 nM; in test [3] (setting [6]), under 50 nM.

Take `Cc1sc2c(c1C)C(c1ccc(N3CCC4(CC3)CN(CCOc3ccc([C@@H]5c6ccc(O)cc6CC[C@@H]5c5ccccc5)cc3)C4)cc1)=N[C@@H](C)c1nnc(C)n1-2` [III-78]: the concentration for 50% growth inhibition (GI50) in test [1] (setting [7]), in test [2] (setting [8]) and in test [3] (setting [6]) was 50 to 500 nM each time.

Consider `Cc1sc2c(c1C)C(c1ccc(N3CCC(O)(CN4CCN(c5ccc([C@@H]6c7ccc(O)cc7CC[C@@H]6c6c(F)cccc6F)c(F)c5)CC4)CC3)cc1)=N[C@@H](C)c1nnc(C)n1-2` [III-293], for which the concentration for 50% growth inhibition (GI50) is under 50 nM in test [1] (setting [7]), 500 to 2500 nM in test [2] (setting [8]) and under 50 nM in test [3] (setting [6]).

`COc1ccc(-c2sc3cc(OC)ccc3c2C(=O)c2ccc(OCCN3CCC(CCOc4ccc(C5=N[C@@H](Cc6ncco6)c6nnc(C)n6-c6sc(C)c(C)c65)cc4)CC3)cc2)cc1` [V-3]: the GI50 in test [1] (setting [7]), in test [2] (setting [8]) and in test [3] (setting [6]) was 50 to 500 nM in each case.

Consider `Cc1sc2c(c1C)C(c1ccc(N3CCC4(CC3)CN(CC3CCN(c5ccc([C@@H]6c7ccc(O)cc7CC[C@@H]6c6ccccc6)cc5)CC3)C4)cc1)=N[C@@H](C)c1nnc(C)n1-2` [III-88], for which the results for the GI50 in test [1] (setting [7]), in test [2] (setting [8]) and in test [3] (setting [6]) were under 50 nM, 50 to 500 nM and under 50 nM, respectively.

On to `Cc1sc2c(c1C)C(c1ccc(N3CCN(c4ccc([C@@H]5c6ccc7n[nH]cc7c6C[C@@H](C)N5CC(F)(F)F)nc4)CC3)cc1)=N[C@@H](C)c1nnc(C)n1-2` [I-7, (S)-2,3,6,9-tetramethyl-4-(4-(4-(6-((6S,8R)-8-methyl-7-(2,2,2-trifluoroethyl)-6,7,8,9-tetrahydro-2H-pyrazolo[4,3-f]isoquinolin-6-yl)pyridin-3-yl)piperazin-1-yl)phenyl)-6H-thieno[3,2-f][1,2,4]triazolo[4,3-a][1,4]diazepine], for which the GI50 in test [1] (read-out: (+) Dox TRex ERa (GI50)), in test [2] (read-out: (−) Dox TRex ERa (GI50)) and in test [3] was 50 to 500 nM throughout.

`COc1ccc(-c2sc3cc(OC)ccc3c2C(=O)c2ccc(OCCN3CCC4(CC3)CC(Oc3ccc(C5=N[C@@H](Cc6ncco6)c6nnc(C)n6-c6sc(C)c(C)c65)cc3)C4)cc2)cc1` [IV-55]: the GI50 is under 50 nM in test [1] (setting [7]), 500 to 2500 nM in test [2] (setting [8]) and under 50 nM in test [3] (setting [6]).

Turning to `Cc1sc2c(c1C)C(c1ccc(C#CC3CC4(CCN(CCOc5ccc(C(=O)c6c(-c7ccc(O)cc7)sc7cc(O)ccc67)cc5)CC4)C3)cc1)=N[C@@H](C)c1nnc(C)n1-2` [I-29, (S)-(6-hydroxy-2-(4-hydroxyphenyl)benzo[b]thiophen-3-yl)(4-(2-(2-((4-(2,3,6,9-tetramethyl-6H-thieno[3,2-f][1,2,4]triazolo[4,3-a][1,4]diazepin-4-yl)phenyl)ethynyl)-7-azaspiro[3.5]nonan-7-yl)ethoxy)phenyl)methanone], the GI50 in test [1] (setting [4]), in test [2] (setting [5]) and in test [3] (setting [6]) was under 50 nM throughout.

On to `Cc1sc2c(c1C)C(c1ccc(N3CCC(O)(CN4CCN(c5ccc([C@@H]6c7ccc(C(=O)O)cc7CC[C@@H]6c6ccccc6)cc5)CC4)CC3)cc1)=N[C@@H](C)c1nnc(C)n1-2` [III-188], for which the GI50 is under 50 nM in test [1] (setting [7]), 50 to 500 nM in test [2] (setting [8]) and 50 to 500 nM in test [3] (setting [6]).

For the molecule `COc1cc(N2CCN(CC3(O)CCN(c4ccc(C5=N[C@@H](C)c6nnc(C)n6-c6sc(C)c(C)c65)cc4)CC3)CC2)ccc1[C@H]1c2ccc(O)cc2CC[C@H]1c1cccc(F)c1` [III-309], the GI50 in test [1] (setting [7]), in test [2] (setting [8]) and in test [3] (setting [6]) was 50 to 500 nM in each case.

In the case of `Cc1sc2c(c1C)C(c1ccc(N3CCC(O)(CN4CCN(c5ccc([C@@H]6c7ccc(C(=O)O)cc7CC[C@@H]6c6ccc(F)cc6F)cc5)CC4)CC3)cc1)=NC(Cc1ncco1)c1nnc(C)n1-2` (stereo partly drawn) [III-214], the GI50 in test [1] (setting [7]) is under 50 nM; in test [2] (setting [8]), 50 to 500 nM; in test [3] (setting [6]), under 50 nM.

As for `Cc1sc2c(c1C)C(c1ccc(N3CCC(O)(CN4CCN(c5ccc([C@@H]6c7ccc(O)cc7CC[C@@H]6c6ccc(F)cc6)cc5Cl)CC4)CC3)cc1)=N[C@@H](C)c1nnc(C)n1-2` [III-302], the GI50 in test [1] (setting [7]) is 50 to 500 nM; in test [2] (setting [8]), 500 to 2500 nM; in test [3] (setting [6]), 50 to 500 nM.

With `Cc1sc2c(c1C)C(c1ccc(N3CCN(CC4CCN(c5ncc([C@@H]6c7ccc(O)cc7CC[C@@H]6c6ccccc6)cn5)CC4)CC3)cc1)=N[C@@H](C)c1nnc(C)n1-2` [III-123], the 50% growth inhibitory concentration (GI50) was under 50 nM in test [1] (setting [7]), 500 to 2500 nM in test [2] (setting [8]) and 50 to 500 nM in test [3] (setting [6]).

On to `Cc1sc2c(c1C)C(c1ccc(CC3CC4(CCN(c5ccc([C@@H]6c7ccc(O)cc7CC[C@@H]6c6ccccc6)cc5)CC4)C3)cc1)=N[C@@H](C)c1nnc(C)n1-2` [III-14], for which the GI50 was 50 to 500 nM in test [1] (setting [7]), 500 to 2500 nM in test [2] (setting [8]) and 500 to 2500 nM in test [3] (setting [6]).
